The results in this text go back to patent EP4786487A1, “PEPTIDE” (Peptidream Inc, priority 2023, dated 2025).

Where two headings read alike, the source gives them in different places. Starred links: 1 amine or outer side, 2 acyl side, 3 side chain; linkers in the order of their positions; H or OH if unused. Positions of bridges follow the written chain, without caps; N, C: chain ends. Non-standard residues stand in square brackets, D forms with d. Residues, ends and D or L forms follow the SMILES beside them. *: point of attachment. X6 = CS(=O)(=O)c1ccc(-c2ccc(C[C@H](N[*:1])C(=O)[*:2])cc2)cc1; Phe(3-OCH2COOH) = N[C@@H](Cc1cccc(OCC(=O)O)c1)C(=O)O; Trp(1-Ph) = N[C@@H](Cc1cn(-c2ccccc2)c2ccccc12)C(=O)O; Piperidine(4-CH2CH2CONH2) = NC(=O)CCC1CCN(*)CC1; Phe(4-COOH) = N[C@@H](Cc1ccc(C(=O)O)cc1)C(=O)O; Trp(6-aza) = N[C@@H](Cc1c[nH]c2cnccc12)C(=O)O; Piperazinyl(4-CH2COOH) = O=C(O)CN1CCN(*)CC1; Piperidinyl(4-CH2COOH) = O=C(O)CC1CCN(*)CC1; Gly(decyl) = CCCCCCCCCC[C@H](N)C(=O)O; NMeF = CN[C@@H](Cc1ccccc1)C(=O)O; NMeE = CN[C@@H](CCC(=O)O)C(=O)O; Cha = N[C@@H](CC1CCCCC1)C(=O)O; NMeA = CN[C@@H](C)C(=O)O; NPrGly = CCCNCC(=O)O; NEtG = CCNCC(=O)O; Sar = CNCC(=O)O

One assay has as its target T1, Myostatin (Homo sapiens, UniProt O14793).
T1 construct: active myostatin (also called mature myostatin) is a homodimer consisting of two C-terminal growth factor domains; purchased R&D systems 788-G8/CF
T1 sequence (O14793 267-375): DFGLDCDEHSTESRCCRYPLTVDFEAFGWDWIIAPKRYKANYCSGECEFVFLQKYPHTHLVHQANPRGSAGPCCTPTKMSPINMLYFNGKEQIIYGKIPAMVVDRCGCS
Briefly: HepG2 reporter gene assay, Evaluation Procedure (2): 2-concentrations assay, myostatin inhibition. The class given is cell-based. The gist of the method: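 HepG2 cells (HB-8065, ATCC) carrying the transfected pGL3(CAGA)12-luc reporter plasmid were treated with myostatin (788-G8/CF, R&D systems) at a final concentration of 10 ng/mL plus peptide and incubated at 37°C, 5% CO2 for 20 to 24 hours. Luminescence was read after adding PBS mixed 1:1 with One-Glo substrate, and inhibition rate was calculated.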

For another assay, the target named is T2, GDF-11 (Homo sapiens, UniProt O95390).
T2 construct: purchased R&D systems 1958-GD-G8/CF
T2 sequence (O95390 299-407): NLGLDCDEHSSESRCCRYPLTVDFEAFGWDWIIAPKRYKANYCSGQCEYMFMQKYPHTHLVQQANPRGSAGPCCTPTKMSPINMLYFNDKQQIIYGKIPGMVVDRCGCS
Put plainly: HepG2 reporter gene assay, Evaluation Procedure (2): 2-concentrations assay, GDF-11 inhibition. The class given is cell-based. The gist of the method:
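HepG2 cells carrying the transfected pGL3(CAGA)12-luc reporter, a pGL3 vector with luciferase placed downstream of 12 CAGA repeats, were stimulated with GDF-11 at a final 10 ng/mL together with test peptide. Blank wells received no GDF-11 and no peptide. Plates were incubated 20 to 24 hours at 37°C with 5% CO2. Luminescence from One-Glo substrate was read to calculate percent inhibition.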

[1] abbreviates: Table 7-3/7-4, myostatin 10 ng/mL, peptide at the higher of the 2 concentrations, HepG2, read-out: inhibition rate (myostatin inhibition assay).
[2] abbreviates: Table 7-3/7-4, myostatin 10 ng/mL, peptide at the lower of the 2 concentrations, HepG2, read-out: inhibition rate (myostatin inhibition assay).
Where [3] appears, read: HepG2, first GDF-11 column of Table 7-3/7-4, GDF-11 10 ng/mL, peptide at the lower of the 2 concentrations, read-out: inhibition rate (GDF-11 inhibition assay).
Where [4] appears, read: HepG2, second GDF-11 column of Table 7-3/7-4, GDF-11 10 ng/mL, peptide at the higher of the 2 concentrations, read-out: inhibition rate (GDF-11 inhibition assay).
The mark [5] stands for this setting: HepG2, read-out: inhibition rate (myostatin inhibition assay).
Where [6] appears, read: HepG2, read-out: inhibition rate (GDF-11 inhibition assay), Table 7-3/7-4, GDF-11 10 ng/mL, peptide at the higher of the 2 concentrations.
Where [7] appears, read: HepG2, read-out: inhibition rate (GDF-11 inhibition assay), Table 7-3/7-4, GDF-11 10 ng/mL, peptide at the lower of the 2 concentrations.

Consider `CCCCCCCCCC[C@@H]1NC(=O)[C@H](CC2CCCCC2)NC(=O)[C@H](CCCNC(=N)N)NC(=O)[C@H](Cc2ccc(C(=O)O)cc2)NC(=O)[C@H](Cc2cccc(OCC(=O)O)c2)NC(=O)[C@H](C)N(C)C(=O)[C@H]([C@@H](C)CC)NC(=O)[C@H](Cc2ccccc2)N(C)C(=O)[C@H](Cc2ccc(O)cc2)NC(=O)[C@H](Cc2cn(-c3ccccc3)c3ccccc23)NC(=O)[C@H](C)NC(=O)[C@H](C)NC(=O)CSC[C@H](C(=O)N2CCN(CC(=O)O)CC2)NC(=O)[C@H](Cc2ccccc2)N(C)C(=O)[C@H](CCC(=O)O)N(C)C1=O` [Myostatin_99_v333] ({CH2CO}-AA[Trp(1-Ph)]Y[NMeF]I[NMeA][Phe(3-OCH2COOH)][Phe(4-COOH)]R[Cha][Gly(decyl)][NMeE][NMeF][dC]-{Piperazinyl(4-CH2COOH)}; thioether N-15), for which, at Myostatin (setting [1]), the inhibition at 0.1 µM came out at 100%. Moreover, the inhibition at 0.03 µM on Myostatin (setting [2]) was 100%. Besides, the inhibition on GDF-11 (setting [3]) came out at 0%; at GDF-11 (setting [4]) it was 34%.
For the compound `CCCCCCCCCC[C@@H]1NC(=O)[C@H](Cc2ccccc2)N(C)C(=O)[C@H](CCCNC(=N)N)NC(=O)[C@H](Cc2ccc(C(=O)O)cc2)NC(=O)[C@H](Cc2cccc(OCC(=O)O)c2)NC(=O)CN(CCC)C(=O)[C@H]([C@@H](C)CC)NC(=O)[C@H](Cc2ccccc2)N(C)C(=O)[C@H](Cc2ccc(O)cc2)NC(=O)[C@H](Cc2c[nH]c3ccccc23)NC(=O)[C@H](C)NC(=O)[C@H](C)NC(=O)CSC[C@H](C(=O)N2CCC(CC(=O)O)CC2)NC(=O)[C@H](Cc2ccccc2)N(C)C(=O)[C@H](CCC(=O)O)N(C)C1=O` [Myostatin_99_v334] ({CH2CO}-AAWY[NMeF]I[NPrGly][Phe(3-OCH2COOH)][Phe(4-COOH)]R[NMeF][Gly(decyl)][NMeE][NMeF][dC]-{Piperidinyl(4-CH2COOH)}; thioether N-15), the inhibition at 0.1 µM on Myostatin (setting [1]) came to 99%. Also, the inhibition at 0.03 µM at Myostatin (setting [2]) worked out at 90%. For the same compound, the inhibition on GDF-11 (setting [3]) and on GDF-11 (setting [4]) was 0% throughout.
In the case of `CCCCCCCCCC[C@@H]1NC(=O)[C@H](Cc2ccccc2)N(C)C(=O)[C@H](CCCNC(=N)N)NC(=O)[C@H](Cc2ccc(C(=O)O)cc2)NC(=O)[C@H](Cc2cccc(OCC(=O)O)c2)NC(=O)CN(CC)C(=O)[C@H]([C@@H](C)CC)NC(=O)[C@H](Cc2ccccc2)N(C)C(=O)[C@H](Cc2ccc(O)cc2)NC(=O)[C@H](Cc2c[nH]c3ccccc23)NC(=O)[C@H](C)NC(=O)[C@H](C)NC(=O)CSC[C@H](C(=O)N2CCC(CC(=O)O)CC2)NC(=O)[C@H](Cc2ccccc2)N(C)C(=O)[C@H](CCC(=O)O)N(C)C1=O` [Myostatin_99_v336] ({CH2CO}-AAWY[NMeF]I[NEtG][Phe(3-OCH2COOH)][Phe(4-COOH)]R[NMeF][Gly(decyl)][NMeE][NMeF][dC]-{Piperidinyl(4-CH2COOH)}; thioether N-15), the inhibition at 0.1 µM on Myostatin (setting [1]) was 100%. Further, the inhibition at 0.03 µM at Myostatin (setting [2]) is 99%. Further, the inhibition at GDF-11 (setting [3]) and on GDF-11 (setting [4]) was 0% throughout.
Regarding `CCCCCCCCCC[C@@H]1NC(=O)[C@H](Cc2ccccc2)N(C)C(=O)[C@H](CCCNC(=N)N)NC(=O)[C@H](Cc2ccc(C(=O)O)cc2)NC(=O)[C@H](Cc2cccc(OCC(=O)O)c2)NC(=O)CN(CCC)C(=O)[C@H]([C@@H](C)CC)NC(=O)[C@H](Cc2ccccc2)N(C)C(=O)[C@H](Cc2ccc(O)cc2)NC(=O)[C@H](Cc2c[nH]c3cnccc23)NC(=O)[C@H](C)NC(=O)[C@H](C)NC(=O)CSC[C@H](C(=O)N2CCC(CC(=O)O)CC2)NC(=O)[C@H](Cc2ccccc2)N(C)C(=O)[C@H](CCC(=O)O)N(C)C1=O` [Myostatin_99_v337] ({CH2CO}-AA[Trp(6-aza)]Y[NMeF]I[NPrGly][Phe(3-OCH2COOH)][Phe(4-COOH)]R[NMeF][Gly(decyl)][NMeE][NMeF][dC]-{Piperidinyl(4-CH2COOH)}; thioether N-15), the inhibition at 0.1 µM at Myostatin (setting [1]) is 96%. The inhibition at 0.03 µM on Myostatin (setting [2]) was determined as 82%. In addition, the inhibition on GDF-11 (setting [3]) and on GDF-11 (setting [4]) was 0% each time.
In the case of `CCCCCCCCCC[C@@H]1NC(=O)[C@H](Cc2ccccc2)N(C)C(=O)[C@H](CCCNC(=N)N)NC(=O)[C@H](Cc2ccc(C(=O)O)cc2)NC(=O)[C@H](Cc2cccc(OCC(=O)O)c2)NC(=O)CN(C)C(=O)[C@H]([C@@H](C)OC)NC(=O)[C@H](Cc2ccccc2)N(C)C(=O)[C@H](Cc2ccc(O)cc2)NC(=O)[C@H](Cc2c[nH]c3ccccc23)NC(=O)[C@H](C)NC(=O)[C@H](C)NC(=O)CSC[C@H](C(=O)N2CCC(CC(=O)O)CC2)NC(=O)[C@H](Cc2ccccc2)N(C)C(=O)[C@H](CCC(=O)O)N(C)C1=O` [Myostatin_99_v340] ({CH2CO}-AAWY[NMeF]T(Me)[Sar][Phe(3-OCH2COOH)][Phe(4-COOH)]R[NMeF][Gly(decyl)][NMeE][NMeF][dC]-{Piperidinyl(4-CH2COOH)}; thioether N-15), the inhibition at 0.1 µM at Myostatin (setting [1]) worked out at 100%. Moreover, the inhibition at 0.03 µM on Myostatin (setting [2]) is 95%. The inhibition on GDF-11 (setting [3]) and on GDF-11 (setting [4]) was 0% throughout.
As to `CCCCCCCCCC[C@@H]1NC(=O)[C@H](Cc2ccccc2)N(C)C(=O)[C@H](CCCNC(=N)N)NC(=O)[C@H](Cc2ccc(C(=O)O)cc2)NC(=O)[C@H](Cc2cccc(OCC(=O)O)c2)NC(=O)[C@H]2CCCN2C(=O)[C@H]([C@@H](C)CC)NC(=O)[C@H](Cc2ccccc2)N(C)C(=O)[C@H](Cc2ccc(O)cc2)NC(=O)[C@H](Cc2ccc(-c3ccc(S(C)(=O)=O)cc3)cc2)NC(=O)[C@H](C)NC(=O)[C@H](C)NC(=O)CSC[C@H](C(=O)N2CCC(CC(=O)O)CC2)NC(=O)[C@H](Cc2ccccc2)N(C)C(=O)[C@H](CCC(=O)O)N(C)C1=O` [Myostatin_99_v342] ({CH2CO}-AA[X6]Y[NMeF]I[dP][Phe(3-OCH2COOH)][Phe(4-COOH)]R[NMeF][Gly(decyl)][NMeE][NMeF][dC]-{Piperidinyl(4-CH2COOH)}; thioether N-15), the inhibition at 0.03 µM on Myostatin (setting [5]) came to 100%. Also, at Myostatin (setting [5]), the inhibition at 0.1 µM worked out at 100%. The inhibition at GDF-11 (setting [6]) turned out to be 47%; at GDF-11 (setting [7]), 0%.
Turning to `CCCCCCCCCC[C@@H]1NC(=O)[C@H](Cc2ccccc2)N(C)C(=O)[C@H](CCCNC(=N)N)NC(=O)[C@H](Cc2ccc(C(=O)O)cc2)NC(=O)[C@H](Cc2cccc(OCC(=O)O)c2)NC(=O)[C@H]2CCCN2C(=O)[C@H]([C@@H](C)CC)NC(=O)[C@H](Cc2ccccc2)N(C)C(=O)[C@H](Cc2ccc(O)cc2)NC(=O)[C@H](Cc2ccc(-c3ccc(S(C)(=O)=O)cc3)cc2)NC(=O)[C@H](C)NC(=O)[C@H](C)NC(=O)CSC[C@H](C(=O)N2CCC(CCC(N)=O)CC2)NC(=O)[C@H](Cc2ccccc2)N(C)C(=O)[C@H](CCC(=O)O)N(C)C1=O` [Myostatin_99_v345] ({CH2CO}-AA[X6]Y[NMeF]I[dP][Phe(3-OCH2COOH)][Phe(4-COOH)]R[NMeF][Gly(decyl)][NMeE][NMeF][dC]-{Piperidine(4-CH2CH2CONH2)}; thioether N-15), on Myostatin (setting [5]), the inhibition at 0.03 µM came out at 100% and the inhibition at 0.1 µM is 100%. Also, the inhibition on GDF-11 (setting [6]) turned out to be 70%. For the same compound, the inhibition at GDF-11 (setting [7]) was 7%.
